What was measured:
[1] = system: TGF-β-stimulated SMAD3 phosphorylation in BEAS-2B cells; assay: Cellular ALK5 potency assay, inhibition of TGF-β stimulated pSMAD3 formation in BEAS-2B cells; assay type: cell-based; settings: Homo sapiens, inhibition of TGF-β (10 ng/mL) stimulated pSMAD3 formation, 1 hour compound incubation, read-out: BEAS2B pIC50 (converted)
Protocol: Example 255: Cellular ALK5 Potency Assay to Measure pIC50, Inhibition of TGF-β Stimulated pSMAD3 Formation in BEAS-2B Cells
The potency of compounds of the present disclosure for inhibition of TGF-β-stimulated SMAD3 phosphorylation was measured in BEAS-2B cells, a human lung epithelial cell line. TGF-β signals through activin receptor-like kinase 5 (ALK5) immediately prior to SMAD3 phosphorylation.
BEAS-2B cells were grown using 50% DMEM (Life Technologies) and 50% F-12 (Life Technologies) media, supplemented with 10% Fetal Bovine Serum (ATCC), 25 mM HEPES (Life Technologies), and 1×Pen-Strep (Life Technologies). Cells were cultured in a humidified incubator set at 37° C., 5% CO2, and trypsonized using 0.25% Trypsin with 0.5% polyvinylpyrrolidone (PVP).
For the assay, BEAS-2B cells were seeded at 7,500 cells/well (25 μL/well) in a 384-well plate and cultured overnight. Before dosing, growth media was aspirated and the wells were rinsed with HBSS Buffer (HBSS with Calcium and Magnesium, Life Technologies) supplemented with 25 mM HEPES (Life Technologies) and 1% Bovine Serum Albumin (Roche). Compounds were serially diluted in DMSO, then further diluted with supplemented HBSS Buffer (50 μL/well) to create a compound plate 3× of the final assay concentration, at 0.3% DMSO. The diluted compounds were then added to the cells (8 μL/well) and incubated at 37° C., 5% CO2 for 1 hour. After the compound incubation, TGF-β (R&D Systems) reconstituted in supplemented HBSS Buffer was added to the cells ([…], final concentration 10 ng/mL) and incubated for a further 30 minutes, after which the cells were immediately lysed with AlphaLISA lysis buffer (PerkinElmer). AlphaLISA Acceptor and Detector beads (PerkinElmer) were added 2 hours apart, then incubated overnight to be read the next day. The potency of the compound was determined through analysis of dose-dependent quantified changes in pSMAD3 signal from baseline (non-compound treated TGF-β stimulated cells). Data are expressed as pIC50 (negative decadic logarithm IC50) values.

[2] = target: T1, recombinant human ALK5 (TGF-βR1) protein (Homo sapiens, UniProt P36897); assay: Biochemical ALK5 (TGF-βR1) assay to measure pKi (LANCE Ultra ULight kinase assay); settings: apparent pKi, converted from pIC50 using the Cheng-Prusoff equation
T1 construct: purchased Life Technologies PR9075A
T1 sequence (P36897 34-503): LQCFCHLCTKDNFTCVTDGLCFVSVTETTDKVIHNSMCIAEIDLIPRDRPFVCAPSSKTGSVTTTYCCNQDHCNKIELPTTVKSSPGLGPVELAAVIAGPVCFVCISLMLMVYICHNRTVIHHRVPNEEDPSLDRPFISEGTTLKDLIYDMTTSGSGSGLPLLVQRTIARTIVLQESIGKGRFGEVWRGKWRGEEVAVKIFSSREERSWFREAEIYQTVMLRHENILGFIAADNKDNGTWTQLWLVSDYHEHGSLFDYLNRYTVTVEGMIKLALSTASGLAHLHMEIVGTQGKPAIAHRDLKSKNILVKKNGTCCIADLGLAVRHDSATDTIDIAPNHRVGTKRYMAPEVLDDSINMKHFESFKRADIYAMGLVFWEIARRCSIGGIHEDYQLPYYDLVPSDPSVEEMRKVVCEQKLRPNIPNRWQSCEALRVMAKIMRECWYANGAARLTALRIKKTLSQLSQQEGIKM
Protocol: Example 254: Biochemical ALK5 (TGF-βR1) Assay to Measure pKi
The assays were performed in a 384-well plate (24 columns×16 wells/rows). An Echo® 550 Liquid Handler (Labcyte) was used to prepare various intermediate concentrations of compounds of the present disclosure in 100% DMSO. From the intermediate concentrations, a range of concentrations (from 10 μM to 25 pM corresponding to volumes up to 105 nL) were prepared and ejected into a final assay plate to be used to create individual dose response curves for each of the subject compounds. To a separate column within the assay plate, 105 nL of DMSO in each well was used to establish a maximum assay signal. Additionally, 105 nL of 100 μM SD-208, a selective TGF-βR1 inhibitor (Catalog #S7624, Selleck Chemicals), was used in another column of wells to establish a minimal assay signal.
With a multidrop dispenser, 8 μL of enzyme mixture (1.25× final) was added to each well. The enzyme mixture consisted of 250 pM ALK5 enzyme and 62.5 nM peptide substrate (LANCE® (lanthanide chelate excite) Ultra ULight™-DNA Topoisomerase 2-alpha (Thr1342)) prepared in assay buffer (50 mM HEPES, 10 mM MgCl2, 1 mM EGTA, 0.01% Tween-20, pH 7.5 at room temperature) with 2 mM DTT added prior to use. The plate was then sealed with an adhesive seal and allowed to equilibrate for 60 minutes at room temperature.
Next, 2 μL of 125 μM ATP (5× final, 125 μM ATP prepared in assay buffer with 2 mM DTT) was added to the incubated mixtures, covered with a MicroClime® Environmental Lid (Product No. LLS-0310, Labcyte) and immediately transferred to 37° C. The reactions were allowed to proceed at 37° C. for 60 minutes before terminating with the addition of 10 μL of detection antibody (LANCE® (lanthanide chelate excite) Ultra Europium-anti-phospo-DNA Topoisomerase 2-alpha (Thr1342)) in detection mixture (12 mM EDTA, 4 nM detection antibody prepared in detection buffer (50 mM Tris-HCl, 150 mM NaCl, 0.5% BSA (Fraction V), pH 7.0)) at room temperature. The plate was then read on a Perkin Elmer EnVision Plate Reader using europium specific reader settings with excitation and emission wavelengths set to 320 or 340 nm and 665 nm, respectively.
For dose-response analyses, percent inhibition versus compound concentrations were plotted, and pIC50 values were determined from a 4-parameter robust fit model with GraphPad Prism V5 Software (GraphPad Software, Inc., La Jolla, Calif.). This model obtains pIC50 values by fitting the sigmodial dose-response (variable slope) equation to the data. Results were expressed as pIC50 (negative logarithm of IC50) and subsequently converted to pKi (negative logarithm of dissociate constant, K) using the Cheng-Prusoff equation.
The higher the value of pKi (lower value of Ki), the greater the inhibition of ALK5 activity.

Row | Compound | IC50 [1] [nM] | Ki [2] [nM]
1 | CNC(=O)C1CN(c2cnc3ccc(-c4c[nH]nc4-c4cc(Cl)c(F)cc4F)nc3c2)CCN1 (racemic) [Compound 6-25, rac-(2R)-4-[6-[3-(5-chloro-2,4-difluoro-phenyl)-1H-pyrazol-4-yl]-1,5-naphthyridin-3-yl]-N-methyl-piperazine-2-carboxamide] | 25.1 to 158 | 0.0398 to 0.316
2 | Fc1cc(F)c(-c2n[nH]cc2-c2ccc3ncc(NCC4CCCN4)cc3n2)cc1Cl (racemic) [Compound 6-73, 6-[3-(5-chloro-2,4-difluoro-phenyl)-1H-pyrazol-4-yl]-N-[[rac-(2S)-pyrrolidin-2-yl]methyl]-1,5-naphthyridin-3-amine] | 25.1 to 158 | 0.398 to 3.16
3 | CN(C)C1CCN(c2cnc3ccc(-c4c[nH]nc4-c4ccc(F)c(F)c4)nc3c2)C1 (racemic) [Compound 8-5, rac-(3S)-1-[6-[3-(3,4-difluorophenyl)-1H-pyrazol-4-yl]-1,5-naphthyridin-3-yl]-N,N-dimethyl-pyrrolidin-3-amine] | 25.1 to 158 | 0.398 to 3.16
4 | COCc1cccc(-c2n[nH]cc2-c2ccc3ncc(N4CCC(N(C)C)C4)cc3n2)c1 (racemic) [Compound 14-4, rac-(3S)-1-[6-[3-[3-(methoxymethyl)phenyl]-1H-pyrazol-4-yl]-1,5-naphthyridin-3-yl]-N,N-dimethyl-pyrrolidin-3-amine] | 25.1 to 158 | 3.98 to 31.6
5 | CN(C)C1CCN(c2cnc3ccc(-c4nc[nH]c4-c4cc(Cl)ccc4F)cc3c2)C1 (racemic) [Compound 17-5, rac-(3S)-1-[6-[5-(5-chloro-2-fluoro-phenyl)-1H-imidazol-4-yl]-3-quinolyl]-N,N-dimethyl-pyrrolidin-3-amine] | 25.1 to 158 | 0.0398 to 0.316
6 | CN(C)C1CCN(c2cnc3ccc(-c4c(-c5cc(Cl)ccc5F)nc5ccccn45)cc3c2)C1 (racemic) [Compound 19-7, rac-(3S)-1-[6-[2-(5-chloro-2-fluoro-phenyl)imidazo[1,2-a]pyridin-3-yl]-3-quinolyl]-N,N-dimethyl-pyrrolidin-3-amine] | 200 to 1260 | 0.0398 to 0.316
7 | C[C@@H]1CN(CCNc2cnc3ccc(-c4c[nH]nc4-c4cc(Cl)ccc4F)nc3c2)C[C@H](C)N1 [Compound 1-1, 6-(3-(5-chloro-2-fluorophenyl)-1H-pyrazol-4-yl)-N-(2-((3S,5R)-3,5-dimethylpiperazin-1-yl)ethyl)-1,5-naphthyridin-3-amine] | 25.1 to 158 | 0.0398 to 0.316
8 | CC(C)N1CCN(CCNc2cnc3ccc(-c4c[nH]nc4-c4cc(Cl)ccc4F)nc3c2)CC1 [Compound 1-2] | ≤ 20 | 0.0398 to 0.316
9 | CN1CCC(Nc2cnc3ccc(-c4c[nH]nc4-c4cc(Cl)ccc4F)nc3c2)CC1 [Compound 1-3, 6-[3-(5-chloro-2-fluoro-phenyl)-1H-pyrazol-4-yl]-N-(1-methyl-4-piperidyl)-1,5-naphthyridine-3-amine] | ≤ 20 | 0.0398 to 0.316
10 | CN1CCC(Nc2cnc3ccc(-c4c[nH]nc4-c4cc(Cl)ccc4F)nc3c2)C1 (stereo not drawn) [Compound 1-4, 6-[3-(5-chloro-2-fluoro-phenyl)-1H-pyrazol-4-yl]-N-(1-methylpyrrolidin-3-yl)-1,5-naphthyridin-3-amine] | 25.1 to 158 | 0.398 to 3.16
11 | CC(C)N1CCN(C(C)(C)CNc2cnc3ccc(-c4c[nH]nc4-c4cc(Cl)ccc4F)nc3c2)CC1 [Compound 1-5, 6-[3-(5-chloro-2-fluoro-phenyl)-1H-pyrazol-4-yl]-N-[2-(4-isopropylpiperazin-1-yl)-2-methyl-propyl]-1,5-naphthyridin-3-amine] | 25.1 to 158 | 3.98 to 31.6
12 | COCC(C)(CNc1cnc2ccc(-c3c[nH]nc3-c3cc(Cl)ccc3F)nc2c1)N1CCN(C(C)C)CC1 (stereo not drawn) [Compound 1-6, 6-[3-(5-chloro-2-fluoro-phenyl)-1H-pyrazol-4-yl]-N-[2-(4-isopropylpiperazin-1-yl)-3-methoxy-2-methyl-propyl]-1,5-naphthyridin-3-amine] | 200 to 1260 | 0.398 to 3.16
13 | CN1CC(Nc2cnc3ccc(-c4c[nH]nc4-c4cc(Cl)ccc4F)nc3c2)C1 [Compound 1-7, 6-[3-(5-chloro-2-fluoro-phenyl)-1H-pyrazol-4-yl]-N-(1-methylazetidin-3-yl)-1,5-naphthyridin-3-amine] | ≤ 20 | 0.0398 to 0.316
14 | Fc1ccc(Cl)cc1-c1n[nH]cc1-c1ccc2ncc(NCCN3CCC3)cc2n1 [Compound 1-8, N-[2-(azetidin-1-yl)ethyl]-6-[3-(5-chloro-2-fluoro-phenyl)-1H-pyrazol-4-yl]-1,5-naphthyridin-3-amine] | ≤ 20 | 0.0398 to 0.316
15 | CN1CCN(CC(C)(C)Nc2cnc3ccc(-c4c[nH]nc4-c4cc(Cl)ccc4F)nc3c2)CC1 [Compound 1-9, 6-[3-(5-chloro-2-fluoro-phenyl)-1H-pyrazol-4-yl]-N-[1,1-dimethyl-2-(4-methylpiperazin-1-yl)ethyl]-1,5-naphthyridin-3-amine] | 200 to 1260 | 3.98 to 31.6
16 | Fc1ccc(Cl)cc1-c1n[nH]cc1-c1ccc2ncc(NCC3CN4CCN3CC4)cc2n1 (stereo not drawn) [Compound 1-10, 6-[3-(5-chloro-2-fluoro-phenyl)-1H-pyrazol-4-yl]-N-(1,4-diazabicyclo[2.2.2]octan-2-ylmethyl)-1,5-naphthyridin-3-amine] | ≤ 20 | 0.0398 to 0.316
17 | CCN1CCN(CCNc2cnc3ccc(-c4c[nH]nc4-c4cc(Cl)ccc4F)nc3c2)CC1 [Compound 1-11, 6-[3-(5-chloro-2-fluoro-phenyl)-1H-pyrazol-4-yl]-N-[2-(4-ethylpiperazin-1-yl)ethyl]-1,5-naphthyridin-3-amine] | ≤ 20 | 0.0398 to 0.316
18 | CN1CCN(CCNc2cnc3ccc(-c4c[nH]nc4-c4cc(Cl)ccc4F)nc3c2)CC1 [Compound 1-12, 6-[3-(5-chloro-2-fluoro-phenyl)-1H-pyrazol-4-yl]-N-[2-(4-methylpiperazin-1-yl)ethyl]-1,5-naphthyridin-3-amine] | ≤ 20 | 0.0398 to 0.316
